Experimental data taken from US10857105B2, “Compounds and compositions for intracellular delivery of therapeutic agents” (ModernaTX, Inc., priority 2017, dated 2020).
Entries after “also recorded” stand apart in the source; their conditions may differ.

Tests used:
[1] = Tolerability (AST, ALT, clinical signs, hematology) in non-human primates; format: in vivo; conditions: single dose 0.05, 0.3 or 1.0 mpk, intravenous infusion 60 minutes
Protocol: The tolerability and efficacy of nanoparticle compositions to non-human primates was also investigated using a sample formulation including Compound 18. The formulation was prepared according to the standard MC3 formulation described above and included an hEPO mRNA. Primates were administered a single dose of 0.05 (Group 1), 0.3 (Group 2), or 1.0 (Group 3) mpk via intravenous infusion for 60 minutes. Three primates were administered each dose. Expression of hEPO was measured prior to dosing and at 2, 6, 24, 48, and 96 hours post-treatment (Table 26). Table 28 includes levels of indicators of complement activation, while Table 29 includes cytokine induction data.
In general, lower doses were better tolerated. High doses induced body temperature elevation and hunched posture, which is similar to the behavior observed for primates administered higher doses of MC3 formulations.

hEPO mRNA = assay: hEPO expression and cytokine induction after intravenous administration to mice; format: in vivo; conditions: for hEPO expression, 3 h / Cytokine expression, IL-6 (6 h) / Cytokine expression, IP-10 (6 h) / hEPO expression, 6 h / hEPO expression, 24 h: intravenous 0.5 mpk
Protocol: FIG. 17 is a graph showing the hEPO mRNA expression in CD1-mice measured 3 h (left block), 6 h (middle block) and 24 h (right block) after intravenous administration of various nanoparticle compositions. Numbers 1-13 refer to compositions containing an mRNA expressing hEPO and the following: 1: Compound 147, 2: Compound 184, 3: Compound 232; 4: Compound 189; 5: Compound 200; 6: Compound 233; 7: Compound 234; 8: Compound 235; 9: Compound 237; 10: Compound 239; 11: Compound 243; 12: MC3; 13: PBS. […]
Sample formulations of nanoparticle compositions including different lipids are generally first evaluated according to Luc expression in vivo. The activity of several such compositions was further evaluated using an mRNA encoding hEPO. Nanoparticle compositions including Compounds 6, 18, 25, 30, 108-112, 60, and 122, or MC3 were prepared according to Example 2.
The expression of hEPO and cytokine induction in mice intravenously administered a nanoparticle composition at a dose of 0.5 mpk were measured at 3, 6, and 24 hours. […] The expression of hEPO in mice intramuscularly administered a nanoparticle composition from Table 1B at a dose of 0.01 mpk were measured at 3, 6, and 24 hours. […] (see
Table 12 compares the nanoparticle compositions including compounds according to Formula (I), (IA), (IB), (II), (IIa), (IIb), (IIc), (IId), (IIe), (IIf), (IIg), or (III) to the compositions including MC3 on the basis of expression and flux levels. […] Thus, these lipids may be useful in nanoparticle composition therapeutics.

NHP tissues = assay: Lipid tissue accumulation in NHP after a single dose; format: in vivo, cynomolgus monkey
Protocol: (§1) NHP studies: Nonhuman primate studies were conducted using naïve cynomolgus monkeys (cynos), 2-4 years old, weighing 2-6 kg. No treatment randomization or blinding methods were used for any of the animal studies. Sample sizes were determined by the resource equation method. For injection, mRNA-LNPs in phosphate buffered saline (PBS) were administered by 60-minute intravenous infusion using a temporary indwelling catheter inserted in a peripheral vein.
NHP more closely approximates clinical responses for LNP-based systems than rodent (DeRosa, F., Guild, B., Karve, S., Smith, L., Love, K., Dorkin, J R., et. al. Therapeutic efficacy in a hemophilia B model using a biosynthetic mRNA liver depot system. Gene Ther. 2016, 23, 699-707, the contents of which are incorporated herein by reference in their entireties). In order to translate the findings from rodent to the non-human primate (NHP), the lipids were tested in NHP. For this purpose, it was evaluated whether the improved expression observed in mouse and rat with LNPs containing compound 18 could also be achieved in NHP after a single dose. […] A dose of 0.01 mg/kg of hEPO-encoding mRNA was delivered via a 60 minute intravenous infusion. […] A separate study evaluated the lipid tissue accumulation in NHP after a single dose.

in vivo = conditions: male, Sprague-Dawley, rat, iv
Protocol: LNP administration to animals: mRNA-LNPs diluted in phosphate buffered saline (PBS) were injected intravenously (5 mL/kg) into female CD-1 female mice (18 to 22 g in body weight) and male Sprague-Dawley rats (225-250 g in body weight) via the tail vein using 29 g, 3/10 cc insulin syringes (mice) or 27 g, 1 mL syringes (rats) after gentle warming of the animals using a heat lamp for 3 minutes.
Protein was precipitated and analyzed against calibration standards prepared in matching blank. Chromatographic separation and quantification was accomplished with a LC-MS/MS System. Samples were injected and separated via HPLC A triple-quadrupole MS/MS system operated in positive ion mode was used for signal detection.
PK analysis of the individual plasma and tissue concentration data was performed using anon-validated program (Phoenix WinNonlin®, Version 7.0 (Pharsight Corp., Mountain View, Calif.)). Kinetic parameters were estimated using a noncompartmental model (Plasma (200-202), Uniform weighting, extravascular dosing with sparse sampling). The AUG was calculated using the linear trapezoidal rule. All derived parameters are reported to 3 significant figures with the exception of time to peak concentration (Tmax) and halflife (HL), which are reported to one decimal place. No further statistical analyses were performed on the plasma concentration data or derived pharacokinetic parameters.

cynomolgus monkeys = assay: Repeat dose hEPO expression in cynomolgus monkeys, once weekly for 5 weeks; format: in vivo, cynomolgus monkey; conditions: 0.2 mg/kg hEPO mRNA, 60-minute intravenous infusion, n=4
Protocol: as §1
hEPO ELISA for NHP samples: Human Epo levels were measured using a human erythropoietin immunoassay. Cytokines levels were measured using a non-human primate cytokine kit.
The level of expression provided by LNPs of the disclosure in a repeat dose experiment in primates was evaluated. A 0.2 mg/kg dose of hEPO mRNA in a compound 18-based LNP was delivered via a 60-minute intravenous infusion to cynomolgus monkeys (n=4) once weekly for 5 weeks.

mice = assay: hEPO expression on repeat intravenous dosing of hEPO mRNA LNPs in mice; format: in vivo; conditions: 0.5 mg/kg hEPO mRNA intravenously to mice
Protocol: Blood collection and analysis for hEPO. Blood was collected from mice or rats via the tail vein and hEPO concentrations were determined using a hEPO ELISA assay.
Repeat dosing of mRNA in an MC3-based LNP for a therapeutic indication would be expected to lead to accumulation of MC3 in tissues, based on the measured half-life. Therefore it was investigated whether the favorable single dose pharmacokinetics of compound 18 were maintained with weekly dosing. Clearance of MC3 and compound 18 from multiple mouse tissues was measured after dosing 0.05 mg/kg mRNA on day 1, 8 and 15 (FIG. 30A). Following dosing with MC3 LNPs, lipid was detected in liver, spleen, plasma, kidney, heart and lung; with liver and spleen containing the largest concentrations (FIG. 30A, for full panel of tissues see FIG. 35A). […] Compound 18 was also detected in plasma, lung, and kidney, but not in heart (FIG. 35A).

female CD-1 mice = assay: Luciferase expression after subcutaneous administration of lipid/mRNA formulations (whole body BLI); format: in vivo; conditions: 0.5 mpk
Protocol: The effect of the lipids of the disclosure on protein expression upon subcutaneous administration was studied. Formulations containing lipids of the disclosure and an mRNA expressing luciferase or hEPO were administered subcutaneously to female CD-1 mice at 0.5 mpk. Expression levels were obtained via whole body luminescent imaging (BLI) at 3, 6 and 24 hours after injection and expression levels in liver, spleen and at the injection site were evaluated ex vivo after 24 hours. […] See also Tables 35 and 36, and FIGS. 19 and 27.
Table 35 summarizes the luciferase expression levels using various nanoparticle compositions of the disclosure, and the luciferase expression levels using various nanoparticle compositions 6f the disclosure as compared to the luciferase expression level using an MC3 formulation after subcutaneous administration, as described above.

## CCCCCCCCCOC(=O)CCCCCCCN(CCO)CCCCCCCC(=O)OC(CCCCCCCC)CCCCCCCC [Compound 18, Heptadecan-9-yl 8-((2-hydroxyethyl)(8-(nonyloxy)-8-oxooctyl)amino)octanoate]
[1]
  Tolerability: tolerated similarly to the MC3 formulation
hEPO mRNA; mice
  hEPO expression, 3 h: 3e+06 pg/mL
  hEPO expression, 24 h: 1.8e+06 pg/mL
hEPO mRNA; mice, 6 h
  Cytokine expression, IL-6 (6 h): 10.16 pg/mL
  Cytokine expression, IP-10 (6 h): 299.93 pg/mL
  hEPO expression, 6 h: 3.38e+06 pg/mL
hEPO mRNA; mice, intravenous, 0.5 mpk, 3, 6 and 24 hours
  hEPO concentrations compared with MC3 formulations: higher hEPO concentrations than MC3 formulations at each time point
NHP tissues
  lipid residue in tissues at 12 hours post dose: significantly lower levels
In vivo
  half-life: 5.8 h
Cynomolgus monkeys
  hEPO exposure over repeat dosing: Efficient expression; also recorded: Consistent exposure
mice
  hEPO expression on repeat dosing: Consistent levels of expression

## CCCCCC=CCC=CCCCCCCCCC(CCCCCCCCC=CCC=CCCCCC)OC(=O)CCCN(C)C (stereo not drawn) [MC3, heptatriaconta-6,9,28,31-tetraen-19-yl 4-(dimethylamino)butanoate, reference compound]
hEPO mRNA; 6 h
  Average hEPO concentration (pg/ml, 6 h): 1.83e+06 pg/mL
hEPO mRNA; Table 12, 6 h
  Fold increase in hEPO concentration relative to MC3: 1
hEPO mRNA; mice
  hEPO expression, 3 h: 1.57e+06 pg/mL
  hEPO expression, 24 h: 810000 pg/mL
hEPO mRNA; mice, 6 h
  Cytokine expression, IL-6 (6 h): 19.85 pg/mL
  Cytokine expression, IP-10 (6 h): 117.94 pg/mL
  hEPO expression, 6 h: 1.83e+06 pg/mL
Female CD-1 mice
  Lipid/MC3 AUC ratio (luciferase): 1
Female CD-1 mice; BLI at 3, 6 and 24 hours
  Luciferase expression AUC: 1.7127E+10 (p/s)*h
NHP tissues
  lipid residue in tissues at 12 hours post dose: found in multiple tissues
